Non-standard residues stand in square brackets, D forms with d. Residues, ends and D or L forms follow the SMILES beside them. pGlu = O=C1CC[C@@H](C(=O)O)N1; Thz = O=C(O)[C@@H]1CSCN1
Test system: patients with chronic diarrhoea caused by Crohn's disease or ulcerative colitis
Test: open-label pilot trial in patients with chronic diarrhoea caused by Crohn's disease or ulcerative colitis
Assay type: in vivo
From the text: Three patients with chronic diarrhoea caused by Crohn's disease without resection, aged 44 to 63 years (2 female) and three patients with chronic diarrhoea caused by ulcerative colitis, aged 50 to 65 years (1 female) were enrolled in an open-label pilot trial to receive twice a day the composition as per the Example 4 for 12 weeks.

[1] = composition as per Example 4 twice a day for 12 weeks, 3 Crohn's disease and 3 ulcerative colitis patients

O=C1CC[C@@H](C(=O)N2CSC[C@H]2C(=O)O)N1 [pidotimod, (4R)-3-(5-oxo-L-prolyl)-1,3-thiazolidine-4-carboxylic acid] ([pGlu]-[Thz]-OH)
role in inflammatory bowel disease (IBD) in controlling signs and symptoms such as chronic diarrhea (administered twice daily for 12 weeks, study conclusion): beneficial role | frequency of stools (composition as per Example 4 (oral solution, 5.10% pidotimod) twice a day for 12 weeks, 3 Crohn's disease and 3 ulcerative colitis patients): significantly decreased | bowel transit time [1]: prolonged | stool consistency [1]: became more solid | weight of stools [1]: significantly decreased
